Source: ChEMBL document CHEMBL5352382, “Synthesis and evaluation of imidazo[1,2-a]pyrazine derivatives as small molecule Gαq/11 inhibitors against uveal melanoma” (Eur J Med Chem, 2022)
Values belong to the compound of their own block, whether it stands above or below them. Activity calls are given as the source filed them. The calls are words filed in the database; no cut-off is given here.

Assays:
[1] = Antiproliferative activity against human 921 cells assessed as reduction in cell viability measured after 72 hrs by CCK-8 method; format: functional, cell-based; settings: Homo sapiens, 921, 72 h
[2] = Antiproliferative activity against human MP41 cells assessed as reduction in cell viability measured after 72 hrs by CCK-8 method; format: functional, cell-based; settings: MP41, 72 h
[3] = biological target: GNAQ/GNA11 (Homo sapiens) (UniProt P50148+P29992); test: Inhibition of Galphaq/11 (unknown origin) expressed in CHO-M1 cells at 10 uM preincubated for 1 hr followed by carbachol stimulation for 30 mins and measured after 1 hr by IP1 accumulation based HTRF assay relative to control; format: cell-based; settings: time 150.0 min
[4] = system: MP41; test: Antiproliferative activity against human MP41 cells assessed as reduction in cell viability at 10 uM measured after 72 hrs by CCK-8 method; format: functional, cell-based
[5] = system: SK-MEL-2; test: Antiproliferative activity against human SK-MEL-2 cells assessed as reduction in cell viability at 10 uM measured after 72 hrs by CCK-8 method; format: functional, cell-based
[6] = system: MP41; test: Inhibition of cell migration in human MP41 cells at 1 uM incubated for 24 hrs by wound healing assay; format: functional, cell-based
[7] = system: MP41; test: Inhibition of colony formation in human MP41 cells assessed as inhibition of cell proliferation at 1 uM incubated for 14 days with replacement with fresh medium for every 3 days by crystal violet staining based analysis; format: functional; settings: time 14.0 day
[8] = system: A-375; test: Antiproliferative activity against human A-375 cells assessed as reduction in cell viability at 10 uM measured after 72 hrs by CCK-8 method; format: functional, cell-based
[9] = system: 921; test: Antiproliferative activity against human 921 cells assessed as reduction in cell viability at 10 uM measured after 72 hrs by CCK-8 method; format: functional, cell-based
[10] = system: BEAS-2B; test: Cytotoxicity against human BEAS-2B cells assessed as reduction in cell viability at upto 10 uM measured after 72 hrs by CCK-8 method; format: toxicity, cell-based
[11] = system: HEK-293T; test: Cytotoxicity against HEK293T cells assessed as reduction in cell viability at upto 10 uM measured after 72 hrs by CCK-8 method; format: toxicity, cell-based; settings: human

SMILES: CC[C@H](C)[C@H](N)C(=O)N1CCn2cc(-c3cccc(Cl)c3OC)nc2[C@@H]1CC1CCCCC1
IC50 [1]: 11.3 µM
IC50 [2]: 7.9 µM
inhibition [3]: 24.2%

SMILES: CC[C@H](C)[C@H](N)C(=O)N1CCn2cc(-c3cc(Cl)c(Cl)c(Cl)c3)nc2[C@@H]1CC1CCCCC1
IC50 [1]: 5.9 µM
IC50 [2]: 7.8 µM
inhibition [3]: 13.2%

SMILES: N[C@@H](CSSC[C@H](N)C(=O)N1CCn2cc(-c3ccccc3)nc2[C@@H]1CC1CCCCC1)C(=O)N1CCn2cc(-c3ccccc3)nc2[C@@H]1CC1CCCCC1
Activity [4]: Active
Activity [5]: Active
inhibition [6]: Active
IC50 [1]: 14.3 µM
inhibition [7]: Active
IC50 [2]: 10.2 µM
inhibition [3]: 10.9%
Activity [8]: Active
Activity [9]: Active

SMILES: CC[C@H](C)[C@H](N)C(=O)N1CCn2cc(-c3ccc4c(c3)CCCC4)nc2[C@@H]1C(C)C
IC50 [1]: 13 µM
IC50 [2]: 19.8 µM
inhibition [3]: 9.4%

SMILES: CC[C@H](C)[C@H](N)C(=O)N1CCn2cc(-c3cccc(F)c3F)nc2[C@@H]1CC1CCCCC1
IC50 [1]: 3.2 µM
IC50 [2]: 25.9 µM
inhibition [3]: 16.3%

SMILES: CC[C@H](C)[C@H](N)C(=O)N1CCn2cc(-c3ccccc3)nc2[C@@H]1CC1CCCCC1
IC50 [1]: 10.5 µM
IC50 [2]: 24.1 µM
inhibition [3]: 26.6%

SMILES: CC[C@H](C)[C@H](N)C(=O)N1CCn2cc(-c3cccc(N)c3)nc2[C@@H]1CC1CCCCC1
IC50 [1]: > 40 µM
IC50 [2]: > 40 µM
inhibition [3]: 10.8%

SMILES: CC[C@H](C)[C@H](N)C(=O)N1CCn2cc(-c3cccc(Cl)c3Cl)nc2[C@@H]1CC1CCCCC1
IC50 [1]: 13.8 µM
IC50 [2]: 9.2 µM
inhibition [3]: 19.9%

SMILES: CC[C@H](C)[C@H](N)C(=O)N1CCn2cc(-c3cccc(Cl)c3)nc2[C@@H]1CC1CCCCC1
IC50 [1]: 10 µM
IC50 [2]: 11.2 µM
inhibition [3]: 26.2%

SMILES: N[C@H](CN1CCn2cc(-c3ccc4c(c3)CCCC4)nc2[C@@H]1CC1CCCCC1)C1CCCCC1
IC50 [1]: 4.1 µM
Activity [10]: Toxic
IC50 [2]: 5.9 µM
inhibition [3]: 12.2%
Activity [11]: Toxic

SMILES: CC[C@H](C)[C@H](N)C(=O)N1CCn2cc(-c3ccc4c(c3)CCCC4)nc2[C@@H]1CC
IC50 [1]: 22.3 µM
IC50 [2]: 30.2 µM
inhibition [3]: 11.5%

SMILES: CC[C@H](C)[C@H](N)C(=O)N1CCn2cc(-c3cc(Cl)ccc3Cl)nc2[C@@H]1CC1CCCCC1
IC50 [1]: 6.8 µM
IC50 [2]: 11 µM
inhibition [3]: 10.2%

SMILES: CC[C@H](C)[C@H](N)C(=O)N1CCn2cc(-c3cccc(OC(F)(F)F)c3)nc2[C@@H]1CC1CCCCC1
IC50 [1]: > 40 µM
IC50 [2]: > 40 µM
inhibition [3]: 12.4%

SMILES: CC[C@H](C)[C@H](N)C(=O)N1CCn2cc(-c3ccc4ccccc4c3)nc2[C@@H]1CC1CCCCC1
IC50 [1]: 18.8 µM
IC50 [2]: 15.5 µM
inhibition [3]: 13.1%

SMILES: CN(C)CCN1CCn2cc(-c3ccc4c(c3)CCCC4)nc2[C@@H]1CC1CCCCC1
IC50 [1]: 4.9 µM
IC50 [2]: 9.3 µM
inhibition [3]: 17.1%

SMILES: CC[C@H](C)[C@H](N)C(=O)N1CCn2cc(-c3ccc4c(c3)CCCC4)nc2[C@H]1CC(C)C
IC50 [1]: 8.3 µM
IC50 [2]: 13.9 µM
inhibition [3]: 3.6%

SMILES: CC[C@H](C)[C@H](N)C(=O)N1CCn2cc(-c3ccc(Cl)c(Cl)c3)nc2[C@@H]1CC1CCCCC1
IC50 [1]: 6.6 µM
IC50 [2]: 9.9 µM
inhibition [3]: 13.2%

SMILES: CN1CCN(CCN2CCn3cc(-c4ccc5c(c4)CCCC5)nc3[C@@H]2CC2CCCCC2)CC1
IC50 [1]: 6.5 µM
IC50 [2]: 11 µM
inhibition [3]: 8.9%

SMILES: CC[C@H](C)[C@H](N)C(=O)N1CCn2cc(-c3cccc(F)c3)nc2[C@@H]1CC1CCCCC1
IC50 [1]: 5 µM
IC50 [2]: 19.8 µM
inhibition [3]: 17.8%

SMILES: CC[C@H](C)[C@H](N)C(=O)N1CCn2cc(-c3cccc([N+](=O)[O-])c3)nc2[C@@H]1CC1CCCCC1
IC50 [1]: 12.2 µM
IC50 [2]: 10.1 µM
inhibition [3]: 17.5%

SMILES: CCC[C@H](N)CN1CCn2cc(-c3ccc4c(c3)CCCC4)nc2[C@@H]1CC1CCCCC1
IC50 [1]: 2.8 µM
IC50 [2]: 9 µM
inhibition [3]: 15.9%

SMILES: CC[C@H](C)[C@H](N)C(=O)N1CCn2cc(-c3ccccc3Cl)nc2[C@@H]1CC1CCCCC1
IC50 [1]: 7.9 µM
IC50 [2]: 11.6 µM
inhibition [3]: 24.4%

SMILES: CC[C@H](C)[C@H](N)C(=O)N1CCn2cc(-c3ccc(Cl)c(C)c3)nc2[C@@H]1CC1CCCCC1
IC50 [1]: 8.2 µM
IC50 [2]: 5.8 µM
inhibition [3]: 7.4%

SMILES: CC[C@H](C)[C@H](N)C(=O)N1CCn2cc(-c3ccc4c(c3)OCO4)nc2[C@@H]1CC1CCCCC1
IC50 [1]: 18.5 µM
IC50 [2]: 12.8 µM
inhibition [3]: 20.2%

SMILES: CC[C@H](C)[C@H](N)C(=O)N1CCn2cc(-c3cccc(C)c3C)nc2[C@@H]1CC1CCCCC1
IC50 [1]: 7 µM
IC50 [2]: 12.8 µM
inhibition [3]: 13.7%

SMILES: CC[C@H](C)[C@H](N)C(=O)N1CCn2cc(-c3ccc(C)cc3)nc2[C@@H]1CC1CCCCC1
IC50 [1]: 9.7 µM
IC50 [2]: 10.9 µM
inhibition [3]: 31.9%

SMILES: CC[C@H](C)[C@H](N)CN1CCn2cc(-c3ccc4c(c3)CCCC4)nc2[C@@H]1CC1CCCCC1
IC50 [1]: 4.8 µM
IC50 [2]: 17.4 µM
inhibition [3]: 11.9%

SMILES: c1cc2c(cc1-c1cn3c(n1)[C@H](CC1CCCCC1)N(CCNC1CCCC1)CC3)CCCC2
IC50 [1]: 6.4 µM
IC50 [2]: 9.7 µM
inhibition [3]: 10.8%

SMILES: CC[C@H](C)[C@H](N)C(=O)N1CCn2cc(-c3ccc4c(c3)CCCC4)nc2[C@@H]1C1CCCCC1
IC50 [1]: 9.3 µM
IC50 [2]: 8.4 µM
inhibition [3]: 10.4%

Second part, led by results:

inhibition [3]: 20.8%
SMILES: CC[C@H](C)[C@H](N)C(=O)N1CCn2cc(-c3cccc(C#N)c3)nc2[C@@H]1CC1CCCCC1
IC50 [1]: 34.5 µM
IC50 [2]: 9.9 µM

inhibition [3]: 15%
SMILES: CC[C@H](C)[C@H](N)C(=O)N1CCn2cc(-c3ccccc3C)nc2[C@@H]1CC1CCCCC1
IC50 [1]: 8.8 µM
IC50 [2]: 7.1 µM

inhibition [3]: 4.1%
SMILES: CC[C@H](C)[C@H](N)C(=O)N1CCn2cc(-c3cccc(C(=O)OC)c3)nc2[C@@H]1CC1CCCCC1
IC50 [1]: 25 µM
IC50 [2]: 16.2 µM

inhibition [3]: 21.9%
SMILES: CC[C@H](C)[C@H](N)C(=O)N1CCn2cc(-c3cccc(Br)c3)nc2[C@@H]1CC1CCCCC1
IC50 [1]: 8.4 µM
IC50 [2]: 10.6 µM

inhibition [3]: 15.7%
SMILES: CC(C)C[C@H](N)CN1CCn2cc(-c3ccc4c(c3)CCCC4)nc2[C@@H]1CC1CCCCC1
IC50 [1]: 3.1 µM
Activity [10]: Toxic
IC50 [2]: 7.5 µM
Activity [11]: Toxic

inhibition [3]: 29.5%
SMILES: CC[C@H](C)[C@H](N)C(=O)N1CCn2cc(-c3cccc(C)c3)nc2[C@@H]1CC1CCCCC1
IC50 [1]: 24.3 µM
IC50 [2]: 6.2 µM

inhibition [3]: 13%
SMILES: CC[C@H](C)[C@H](N)C(=O)N1CCn2cc(-c3cccc(S(C)(=O)=O)c3)nc2[C@@H]1CC1CCCCC1
IC50 [1]: > 40 µM
IC50 [2]: > 40 µM

inhibition [3]: 6.8%
SMILES: c1cc2c(cc1-c1cn3c(n1)[C@H](CC1CCCCC1)N(CCN1CCCCC1)CC3)CCCC2
IC50 [1]: 6.8 µM
IC50 [2]: 12.8 µM

inhibition [3]: 8.5%
SMILES: CC[C@H](C)[C@H](N)C(=O)N1CCn2cc(-c3cccc(C(=O)O)c3)nc2[C@@H]1CC1CCCCC1
IC50 [1]: > 40 µM
IC50 [2]: > 40 µM

inhibition [3]: 6.9%
SMILES: CC(C)(C)NCCN1CCn2cc(-c3ccc4c(c3)CCCC4)nc2[C@@H]1CC1CCCCC1
IC50 [1]: 5.2 µM
IC50 [2]: 8.7 µM

inhibition [3]: 19.4%
SMILES: CC[C@H](C)[C@H](N)C(=O)N1CCn2cc(-c3cccc(I)c3)nc2[C@@H]1CC1CCCCC1
IC50 [1]: 9.1 µM
IC50 [2]: 18.1 µM

inhibition [3]: 12.8%
SMILES: CC[C@H](C)[C@H](N)C(=O)N1CCn2cc(-c3cc(Cl)cc(Cl)c3)nc2[C@@H]1CC1CCCCC1
IC50 [1]: 10.1 µM
IC50 [2]: 10.9 µM

inhibition [3]: 5.2%
SMILES: CCC[C@H]1c2nc(-c3ccc4c(c3)CCCC4)cn2CCN1C(=O)[C@@H](N)[C@@H](C)CC
IC50 [1]: 12.6 µM
IC50 [2]: 18.4 µM

inhibition [3]: 16.8%
SMILES: CC[C@H](C)[C@H](N)C(=O)N1CCn2cc(-c3cc(F)cc(Cl)c3)nc2[C@@H]1CC1CCCCC1
IC50 [1]: 12.9 µM
IC50 [2]: 10.9 µM

inhibition [3]: 19%
SMILES: CN1CCC[C@H]1CN1CCn2cc(-c3ccc4c(c3)CCCC4)nc2[C@@H]1CC1CCCCC1
IC50 [1]: 5 µM
IC50 [2]: 15.2 µM

inhibition [3]: 10.3%
SMILES: CC[C@H](C)[C@H](N)C(=O)N1CCn2cc(-c3ccc4c(c3)CCCC4)nc2[C@H]1C(C)C
IC50 [1]: 11.6 µM
IC50 [2]: 21.4 µM

inhibition [3]: 26.5%
SMILES: CC[C@H](C)[C@H](N)C(=O)N1CCn2cc(-c3ccc(Cl)cc3)nc2[C@@H]1CC1CCCCC1
IC50 [1]: 9.4 µM
IC50 [2]: 10.1 µM
